# Reference: US8088806B2 (Achillion Pharmaceuticals, Inc., priority 2005, dated 2012)
# Test system: HCV replicon
# Test: Replicon based assay of HCV replication inhibition (NPT ELISA)
# Assay type: cell-based, Hepatitis C virus
# Conditions: Hepatitis C virus, replicon based assay of HCV replication inhibition; Table II; read-out: Activity
# In short: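 Huh-7 cells carrying a bicistronic HCV replicon (neo, EMCV-IRES-driven NS3–NS5B) treated overnight after seeding with usually 6 concentrations, 10 to 0.03 micromolar, for three days at 37° C without G418. Replication read as NPT level by captured ELISA; matched-DMSO wells and interferon alpha as controls.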
row,SMILES,EC50 [µM]
1,"CCCCCOc1ccc(Nc2nc(-c3ccc(NC(C)=O)cc3)cs2)cc1C(F)(F)F [compound 437, N-(4-(2-(3-(trifluoromethyl)-4-(pentyloxy)phenylamino)thia-zol-4-yl)phenyl)acetamide]",1 to 10
2,"CCCCCCCOc1ccc(Nc2nc(-c3ccc(NC(C)=O)cc3)cs2)cc1 [compound 438, N-(4-(2-(4-(heptyloxy)phenylamino)thia-zol-4-yl)phenyl)acetamide]",< 1
3,"CCCCCOc1ccc(Nc2nc(-c3ccc(NC(C)=O)cc3)cs2)cc1F [compound 439, N-(4-(2-(3-fluoro-4-(pentyloxy)phenylamino)thia-zol-4-yl)phenyl)acetamide]",< 1
4,"COc1ccc(OC)c(Nc2ncc(-c3cccs3)s2)c1 [compound 440, N-(2,5-dimethoxyphenyl)-5-(thiophen-2-yl)thiazol-2-amine]",1 to 10
5,"CCCCCOc1ccc(Nc2nc(-c3cccnc3C)cs2)cc1C(F)(F)F [compound 441, N-(3-(trifluoromethyl)-4-(pentyloxy)phenyl)-4-(2-methylpyridin-3-yl)thiazol-2-amine]",< 1
6,"CCCCCCCCOc1ccc(Nc2nc(-c3cccnc3C)cs2)cc1 [compound 442, 4-(2-methylpyridin-3-yl)-N-(4-(octyloxy)phenyl)thiazol-2-amine]",< 1
7,"CCCCCOc1ccc(Nc2nc(-c3cccnc3)c(C(=O)OC)s2)cc1C(F)(F)F [compound 443, methyl 2-(3-(trifluoromethyl)-4-(pentyloxy)phenylamino)-4-(pyridin-3-yl)thiazol-5-carboxylate]",< 1
8,"CCCCCCCCOc1ccc(Nc2nc(-c3cccnc3)c(C(=O)OC)s2)cc1 [compound 444, meethyl 2-(4-(octyloxy)pheenylamino)-4-(pyridin-3-yl)thiazol-5-carboxylate]",1 to 10
9,"CCCCCOc1ccc(Nc2nc(-c3c(C)cc(C)nc3C)cs2)cc1C(F)(F)F [compound 445, N-(3-(trifluoromethyl)-4-(pentyloxy)phenyl)-4-(2,4,6-trimethylpyridin-3-yl)thiazol-2-amine]",> 10
10,"CCCCCCCOc1ccc(Nc2nc(-c3c(C)cc(C)nc3C)cs2)cc1 [compound 446, N-(4-(heptyloxy)phenyl)-4-(2,4,6-trimethylpyridin-3-yl)thiazol-2-amine]",> 10
11,"CCCCCCCCOc1ccc(Nc2nc(-c3c(C)cc(C)nc3C)cs2)cc1 [compound 447, 4-(2,4,6-trimethylpyridin-3-yl)-N-(4-(octyloxy)phenyl)thiazol-2-amine]",> 10
12,"CCCCCCCOc1ccc(Nc2nc(-c3ccc(O)c(C(N)=O)c3)cs2)cc1 [compound 448, 5-(2-(4-- (heptyloxy)phenylamino)thia-zol-4-yl)-2-hydroxybenzamide]",< 1
13,"CCCCCCCCOc1ccc(Nc2nc(-c3ccc(O)c(C(N)=O)c3)cs2)cc1 [compound 449, 5-(2-(4-(octyloxy)phenylamino)thia-zol-4-yl)-2-hydroxybenzamide]",< 1
14,"CCCCCOc1ccc(Nc2nc(-c3ccc(N4CCCC4)nc3)cs2)cc1C(F)(F)F [compound 450, N-(3-(trifluoromethyl)-4-(pentyloxy)phenyl)-4-(6-(pyrrolidin-1-yl)pyridin-3-yl)thiazol-2-amine]",< 1
15,"CCCCCCCc1ccc(C(=O)Nc2nc(-c3ccc(Cl)cc3)cs2)cc1 [compound 451, N-(4-(4-chlorophenyl)thiazol-2-yl)-4-heptylbenzamide]",< 1
16,"CCCCCCOc1ccc(Nc2nc(-c3ccc(F)cc3)cs2)cc1 [compound 452, 4-(4-fluorophenyl)-N-(4-(hexyloxy)phenyl)thiazol-2-amine]",< 1
17,"Cc1ccc(-c2csc(Nc3ccc(OC4CCCC4)c(C(F)(F)F)c3)n2)cn1 [compound 453, N-(4-(cyclopentyloxy)-3-(trifluoromethyl)phenyl)-4-(6-methylpyridin-3-yl)thiazol-2-amine]",< 1
18,"CCCCCN(C)c1ccc(Nc2nc(-c3ccc(C)nc3)cs2)cc1C(F)(F)F [compound 454, 2-(trifluoromethyl)-N^1-methyl-N^4-(4-(6-methylpyridin-3-yl)thiazol-2-yl)-N^1-pentylbenzene-1,4-diamine]",< 1
19,"CCCCCCOc1ccc(Nc2nc(-c3ccc(C)nc3)cs2)cc1 [compound 455, N-(4-(hexyloxy)phenyl)-4-(6-methylpyridin-3-yl)thiazol-2-amine]",< 1
20,"CCCCCCCCOc1ccc(Nc2nc(-c3ccc(C(=O)N(C)C)nc3)cs2)cc1 [compound 456, 5-(2-(4-(octyloxy)phenylamino)thia-zol-4-yl)-N,N-dimethylpyridine-2-carboxamide]",1 to 10
21,"CCCCCCCOc1ccc(Nc2nc(-c3ccc(C(=O)N(C)C)nc3)cs2)cc1 [compound 457, 5-(2-(4-(heptyloxy)phenylamino)thia-zol-4-yl)-N,N-dimethylpyridine-2-carboxamide]",1 to 10
22,"CCCCCCCCOc1ccc(Nc2nc(-c3ccc(O)cc3)cs2)cc1 [compound 458, 4-(2-(4-(octyloxy)phenylamino)thia-zol-4-yl)phenol]",< 1

row,SMILES,EC50 [µM]
1,"CCCCCOc1ccc(Nc2nc(-c3ccc(Br)nc3)cs2)cc1C(F)(F)F [compound 459, 4-(6-bromopyridin-3-yl)-N-(3-(trifluoromethyl)-4-(pentyloxy)phenyl)thiazol-2-amine]",< 1
2,"CCCCCOc1ccc(Nc2nc(-c3ccc(Cl)nc3)cs2)cc1C(F)(F)F [compound 460, 4-(6-chloropyridin-3-yl)-N-(3-(trifluoromethyl)-4-(pentyloxy)phenyl)thiazol-2-amine]",< 1
3,"CCCCCCCCOc1ccc(Nc2nc(-c3ccc(OCC(=O)OCC)cc3)cs2)cc1 [compound 461, ethyl 2-(4-(2-(4-(octyloxy)phenylamino)thia-zol-4-yl)phenoxy)acetate]",< 1
4,"CCCCCCCCOc1ccc(Nc2nc(-c3ccc(OCC(=O)O)cc3)cs2)cc1 [compound 462, 2-(4-(2-(4-(octyloxy)phenylamino)thia-zol-4-yl)phenoxy)acetic acid]",< 1
5,"CCCCCCCCOc1ccc(Nc2nc(-c3ccc(NC)nc3)cs2)cc1 [compound 463, 5-(2-(4-(octyloxy)phenylamino)thia-zol-4-yl)-N-meethylpyridin-2-amine]",< 1
6,"CCCCCCCCOc1ccc(Nc2nc(O)cs2)cc1 [compound 464, 2-(4-(octyloxy)phenylamino)thia-zol-4-ol]",1 to 10
7,CC(=O)OCCCCCCN(C)c1ccc(Nc2nc(-c3cccnc3)cs2)cc1C(F)(F)F [compound 465],1 to 10
8,CC(=O)OCCCCCCN(C)c1ccc(Nc2nc(-c3ccc(C)nc3)cs2)cc1C(F)(F)F [compound 466],1 to 10
9,CC(=O)OCCCCCCN(C)c1ccc(Nc2nc(-c3ccc(F)cc3)cs2)cc1C(F)(F)F [compound 467],> 10
10,"CCCCCCCCOc1ccc(Nc2nc(-c3ccc(C(=O)N(C)C)nc3)cs2)cn1 [compound 468, 5-(2-(6-(octyloxy)pyridin-3-ylamino)thiazol-4-yl)-N,N-dimethylpyridine-2-carboxamide]",1 to 10
11,"CCCCCCCCOc1ccc(Nc2nc(-c3cccnc3)cs2)cn1 [compound 469, 6-(octyloxy)-N-0(4-(pyridin-3-yl)thiazol-2-yl)pyridin-3-amine]",1 to 10
12,"CN(CCCCCCO)c1ccc(Nc2nc(-c3ccc(F)cc3)cs2)cc1C(F)(F)F [compound 470, 6-(N-(4-(4-(4-fluorophenyl)thiazol-2-ylamino)-2-(trifluoromethyl)phenyl)-N-methylamino)hexan-1-ol]",1 to 10
13,"CCCCCCCCOc1ccc(Nc2nc(-c3ccc(C)nc3)cs2)cn1 [compound 473, N-(4-(6-methylpyridin-3-yl)thiazol-2-yl)-6-(octyloxy)pyridin-3-amine]",< 1
14,"CCCCCCCCOc1ccc(Nc2nc(-c3ccc(F)c(F)c3)cs2)cn1 [compound 474, N-(4-(3,4-difluorophenyl)thiazol-2-yl)-6-(octyloxy)pyridin-3-amine]",< 1
15,"CCCCCCCCOc1ccc(Nc2nc(-c3ccc(F)cc3)cs2)cn1 [compound 475, N-(4-(4-fluorophenyl)thiazol-2-yl)-6-(octyloxy)pyridin-3-amine]",< 1
16,"CCCCCCCCOc1ccc(Nc2nc(-c3cccnc3)cs2)cc1C(F)(F)F [compound 476, N-(3-(trifluoromeethyl)-4-(octyloxy)phenyl)-4-(pyridin-3-yl)thiazol-2-amine]",< 1
17,"CCCCCCCCN(C)c1ccc(Nc2nc(-c3cccnc3)cs2)cc1C(F)(F)F [compound 477, 2-(trifluoromethyl)-N^1-methyl-N^1-octyl-N^4-(4-(pyridin-3-yl)thiazol-2-yl)benzene-1,4-diamine]",< 1
18,"O=C(Nc1ccc(OCc2ccccc2)cc1)Nc1nc(-c2ccc(Cl)cc2)cs1 [compound 478, 1-(4-(benzyloxy)phenyl)-3-(4-(4-chlorophenyl)thiazol-2-yl)urea]",1 to 10
19,"CCCCCCCCOc1ccc(Nc2nc(Cl)cs2)cc1 [compound 479, 4-chloro-N-(4-(octyloxy)phenyl)thiazol-2-amine]",< 1
20,"CC/C=C\CCCCOc1ccc(Nc2nc(-c3cccnc3)cs2)cc1C(F)(F)F [compound 480, N-(4-((Z)-oct-5-enyloxy)-3-(trifluoromethyl)phenyl)-4-(pyridin-3-yl)thiazol-2-amine]",< 1
21,"CC/C=C\CCCCOc1ccc(Nc2nc(-c3ccc(C)nc3)cs2)cc1C(F)(F)F [compound 481, N-(4-((Z)-oct-5-enyloxy)-3-(trifluoromethyl)phenyl)-4-(6-methylpyridin-3-yl)thiazol-2-amine]",< 1

# Same assay, conditions: replicon based assay of HCV replication inhibition; Table II; read-out: Activity
row,SMILES,EC50 [µM]
1,"CCCCCCCCOc1ccc(Nc2nc(-c3ccc(C(=O)N(C)C)nc3)cs2)cn1 [compound 471, 5-(2-(6-(octyloxy)pyridin-3-ylamino)thiazol-4-yl)-N,N-dimethylpyridine-2-carboxamide]",< 1
2,"CCCCCCCCOc1ccc(Nc2nc(-c3cccnc3)cs2)cn1 [compound 472, 6-(octyloxy)-N-(4-(pyridin-3-yl)thiazol-2-yl)pyridin-3-amine]",< 1
